The subject of the experiment is circulating macrophage/monocyte population. Description: Monocyte/macrophage depletion with gadolinium chloride in the NaIO3 model. The experiment is classed as in vivo, rat. From the text:
To determine the identity of the autofluorescent cells that coincide with the reticular pattern of FAF, excised retina were stained for with markers of the innate immune system, avoiding the 488 nm channel. Iba1 is a pan-microglial/macrophage marker and in the rat retina; antibodies against it identify the major phagocytic cell populations. […] Further, when compared against photoreceptor nuclear staining, this curvilinear pattern is seen to lie interposed between folds of the deformed ONL. This pattern of Iba1^+ cells corresponds with the pattern of hyperfluorescence observed in vivo by FAF imaging, and with the pattern of autofluorescent cells in excised retina. […] Importantly, at 7 days after NaIO3, all RPE cells are absent from the posterior eye cup, confirming that these cells cannot be responsible for the observed FAF. Also, identification of the autofluorescent cells as phagocytic was confirmed by comparison of imaging to preparations in which monocyte/macrophage depletion has been undertaken. Such depletion was achieved by treatment with gadolinium chloride (GAD). […]

This is an account of results in patent US12377171B2, “Methods for treating and diagnosing blinding eye diseases” (Translatum Medicus Inc., priority 2012, dated 2025).

Entries after “also recorded” stand apart in the source; their conditions may differ.

On to `[Cl][Gd]([Cl])[Cl]` [GAD, gadolinium chloride], for which the area of damage result (7 days after NaIO3 and simultaneous GAD depletion) was “smaller areas of damage”. For the same compound, the “FAF pattern of NaIO3-induced outer retinal damage” value (GAD-treated vs untreated, after NaIO3) was “far less well defined reticular patterns of FAF; also recorded: profound alteration of the NaIO3-induced pattern of FAF and DNIRA; also recorded: less well-demarcated borders”.
